Measurements from patent publication US11242321B2, “Salt forms of organic compound” (KAINOS MEDICINE INC., priority 2018, dated 2022).

Assays:
[1] = Aqueous solubility assessment of salt screen solids (visual); settings: Ca. 5 mg in up to 4000 μL water (1.25 mg/ml), shaken overnight at 50° C.; for Solubility assessment (dissolution in deionized water), salt from DIPE: salt prepared from DIPE; for Solubility assessment (dissolution in deionized water), salt From Ethanol: salt prepared from ethanol
Procedure: Aqueous solubility assessment was performed using Ca. […] These samples were added to aliquots of deionized water up to a maximum of 4000 μL with the samples being shaken between additions to encourage dissolution prior to a visual inspection.

[2] = Dynamic vapor sorption (DVS); format: physicochemical; settings: for XRPD post DVS: after double cycle 0-90% RH
Procedure: SMS DVS Intrinsic dynamic vapour sorption instrument using DVS-Intrinsic control software v1.0.6.0. Analysis of the data was performed using the DVS analysis suite v7.0.13.1 macro program embedded in Microsoft Excel. Analysis was performed as a wt % change from 0-90% RH with isothermal plots also being examined.
Ca. 10-15 mg of sample was weighed into a stainless steel DVS basket before submitting for analysis. The samples were analysed over the range of 0-90% RH with a maximum time of 6 hours per humidity stage. Each sample was exposed to a double cycle. XRPD analysis of all samples was performed post-DVS.

[3] = pH1 stability; format: physicochemical; settings: pH 1 buffer, 4 h at 37° C.; for Chemical purity post stability (pH 1 for 4 h): HPLC; for 1H NMR post stability (pH 1 for 4 h): cell continues: salt form is no longer present
Procedure: Ca. 25 mg of each of the salts were weighed into a 2 mL HPLC vial prior to the addition of 1 mL of pH 1 buffer. The samples were then shaken for 4 h at 37° C. before being filtered into SPE cartridges and dried overnight.

[4] = FaSSIF/FeSSIF solubility; format: physicochemical; settings: thermodynamic from solid, shaken 24 h at 37° C.
Procedure: Ca. 25 mg of each of the salts were weighed into a 2 mL HPLC vial prior to the addition of 1 mL of Fasting State Simulated Intenstinal Fluid (FaSSIS) solution. […] The experiment was also repeated using Fed State Simulated Intestinal Fluid (FeSSIF) solution.

[5] = Stability at 40° C./75% RH; format: physicochemical; settings: for Chemical purity post stability (40° C./75% RH): HPLC
[6] = pH of saturated solution; format: physicochemical; settings: saturated solution in deionized water, room temperature
Procedure: A saturated solution of each of the salts was prepared in 5 mL of deionized water at room temperature prior to analysis.

[7] = Aqueous solubility, 24 h shake, gravimetric; format: physicochemical; settings: thermodynamic from solid, deionized water
Procedure: Ca. 50 mg of each of the salts were weighed into a 2 mL HPLC vial prior to the addition of 1 mL of deionized water. […] The experiment was also repeated at 50° C.

[8] = FaSSIF, read-out: FaSSIF solubility @ 37° C.
[9] = FeSSIF, read-out: FeSSIF solubility @ 37° C.
[10] = shaken 24 h at 25° C., read-out: Aqueous solubility @ 25° C.

Row | Structure (SMILES) | Solubility assessment (dissolution in deionized water), salt from DIPE [1] | Solubility assessment (dissolution in deionized water), salt from MIBK ([1]; salt prepared from MIBK) | Solubility assessment (dissolution in deionized water), salt From Ethanol [1] | DVS mass increase between 0-90% RH, first cycle [2] | XRPD post DVS [2] | Observations post stability (pH 1 for 4 h) [3] | XRPD post stability (pH 1 for 4 h) [3] | Chemical purity post stability (pH 1 for 4 h) [3] | 1H NMR post stability (pH 1 for 4 h) [3] | solubility at 24 h [4, 8] [µg/mL] | solubility at 24 h [4, 9] [µg/mL] | Observation post stability (40° C./75% RH) [5] | XRPD post stability (40° C./75% RH) [5] | Chemical purity post stability (40° C./75% RH) [5] | pH of rm temp sat'd sol'n [6] | solubility at 24 h [7, 10] [µg/mL] | solubility at 24 h ([7]; shaken 24 h at 50° C.) [µg/mL]
1 | O=C(CSc1ccc(Br)cc1)Nc1cn(CCc2ccccc2)nc1C(=O)[O-].[K+] [potassium salt, 4-(2-((4-bromophenyl)thio)acetamido)-1-phenethyl-1H-pyrazole-3-carboxylic acid potassium salt] | Complete | Partial | Complete | Ca. 5.7% mass increase between 0-90% RH on the first cycle | Partially crystalline-pattern is different from free acid indicating | No visual change | Partially crystalline: change in crystalline form compared to the | >99.9% (by peak area) | Reduction in chemical shifts, indicating that salt form is no | 1500 | 1600 | No visible change | Partially crystalline-no change in form | >99.9% (by peak area) | 9.21 | 6600 | 16200
2 | O=C(CSc1ccc(Br)cc1)Nc1cn(CCc2ccccc2)nc1C(=O)[O-].[Na+] [sodium salt, 4-(2-((4-bromophenyl)thio)acetamido)-1-phenethyl-1H-pyrazole-3-carboxylic Acid Sodium Salt] | Complete |  | Complete | Ca. 11.7% mass increase between 0-90% RH on | Crystalline - no change in form | No visual change | Partially crystalline: change in crystalline | >99.9% (by peak area) | No chemical shifts, indicating that salt form | 4000 | 3800 | No visible change | Crystalline - no change in form | >99.9% (by peak area) | 10.31 | 2300 | 2400
